Measured values reported in article PMC8710297, “Identification of potent SENP1 inhibitors that inactivate SENP1/JAK2/STAT signaling pathway and overcome platinum drug resistance in ovarian cancer” (Clinical and Translational Medicine, 2021).

Biological target: T1, SENP1 (Homo sapiens, UniProt Q9P0U3)
T1 sequence (Q9P0U3 1-644): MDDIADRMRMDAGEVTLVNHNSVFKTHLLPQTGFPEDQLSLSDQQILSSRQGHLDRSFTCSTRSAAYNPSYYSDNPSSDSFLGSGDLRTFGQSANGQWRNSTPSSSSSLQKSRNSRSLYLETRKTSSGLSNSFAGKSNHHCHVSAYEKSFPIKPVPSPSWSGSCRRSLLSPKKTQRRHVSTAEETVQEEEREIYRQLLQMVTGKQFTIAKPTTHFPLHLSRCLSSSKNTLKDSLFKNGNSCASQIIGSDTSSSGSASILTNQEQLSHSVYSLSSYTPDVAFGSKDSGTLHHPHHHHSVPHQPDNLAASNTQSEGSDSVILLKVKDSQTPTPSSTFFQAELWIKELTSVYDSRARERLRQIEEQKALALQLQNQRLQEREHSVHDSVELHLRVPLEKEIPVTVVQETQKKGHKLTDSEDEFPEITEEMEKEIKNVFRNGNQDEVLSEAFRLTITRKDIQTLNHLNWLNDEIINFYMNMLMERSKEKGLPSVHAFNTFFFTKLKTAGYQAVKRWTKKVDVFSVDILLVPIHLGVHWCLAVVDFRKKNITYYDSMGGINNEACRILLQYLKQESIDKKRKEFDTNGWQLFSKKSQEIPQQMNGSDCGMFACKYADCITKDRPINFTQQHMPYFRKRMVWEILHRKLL
Assay: In vitro (cell-free) thermal shift assay
Format: binding
Parameters: made in house
Conditions: purified SENP1, 4 h, higher temperatures
Experimental: FIGURE 2 UA directly interacts with Sentrin‐specific protease 1 (SENP1). (A) Cellular thermal shift assay to examine the interaction of UA with SENP1. IGROV1 CR cells pretreated with MG132 (10 μM, 1 h) were incubated with DMSO or UA for 4 h before being shifted to indicated temperatures. SENP1 stability was analyzed by using Western blot against SENP1 antibody. Right panel, quantification of non‐denatured SENP1 fraction shown in the left panel. (B) Cell‐free thermal shift assay to examine interactions of UA with SENP1. Purified SENP1 proteins were incubated with DMSO or UA for 4 h before being shifted to the indicated temperatures. SENP1 stability was analyzed by using Western blot against SENP1 antibody. Right panel, quantification of non‐denatured SENP1 fraction shown in the left panel. (C) The predicted docking pose of UA (C: green; H: white; O: red) at the hydrophobic catalytic cleft of SENP1 (C: salmon; H: white; O: red; N: blue). Key amino acid residues were highlighted. […] Stability of SENP1(C603A) was analyzed by using Western blot against SENP1 antibody. […] Left; Ultra‐high performance liquid‐chromatography‐MS/MS analyses of associated UA in indicated samples, right; quantification of data shown in left (the binding affinity of UA with SENP1‐C603A was normalized as 1). […]
The qu anti ficatio n of immunohistochemical sta in ing wa s scored blindly at lea st by two independent obser vers. […]

C[C@H]1[C@H](C)CC[C@]2(C(=O)O)CC[C@]3(C)C(=CC[C@@H]4[C@@]5(C)CC[C@H](O)C(C)(C)[C@@H]5CC[C@]43C)[C@H]12 [UA, ursolic acid, reference compound]
thermal stabilization of recombinant SENP1 in vitro: stabilized
